The text below walks through data of US6833364B1, “Substituted pyrazole derivatives” (Bayer HealthCare AG, priority 1998, dated 2004).

Data set [1] deals with soluble guanylate cyclase. The experiment in a line: Stimulation of soluble guanylate cyclase in primary endothelial cells (intracellular cGMP). The format is cell-based. The following applies: pig aortic primary endothelial cells, 10 min. The protocol: Stimulation of Soluble Guanylate Cyclase in Primary Endothelial Cells
Primary endothelial cells were isolated from pig aortas by treatment with collagenase soln. The cells were then cultured in culture medium at 37 °C./5% CO2 until confluence was reached. For the investigations, the cells were passaged, inoculated into 24-well cell culture plates and subcultured until reaching confluence (˜2×10^5 cells/well). For the stimulation of endothelial guanylate cyclase, the culture medium was aspirated and the cells were washed once with Ringer solution. After removing the Ringer solution, the cells were incubated for 10 minutes, at 37° C./5% CO2 in stimulation buffer. […] After a further 10 minutes the buffer solution was aspirated and cold buffer at 4° C. was added to the cells. The cells were then lysed at −20° C. for 16 hours. The supernatants containing the intracellular cGMP were then removed and the cGMP concentration was determined by means of the cGMP-SPA system (Amersham Buchler, Brunswick).

In data set [2] the test system is rabbit aortal rings. The experiment in a line: Vasorelaxant action in vitro, aortal rings contracted with phenylephrine. The conditions noted are these: Oryctolagus cuniculus; rabbit aorta rings, phenylephrine contraction; read-out: IC50 (concentration reducing height of phenylephrine contraction by 50%). How it is done: Vasorelaxant Action in vitro
Rabbits are anaesthetized by a blow to the neck and exanguinated. The aorta is removed, freed from adhering tissue, divided into 1.5 mm wide rings and individually transferred under a pretension into 5 ml organ baths containing a warm, carbogen-aerated Krebs-Henseleit solution at 37° C. of the following composition (mM): NaCl: 119; KCl: 4.8; CaCl2×2 H2O: 1; MgSO4×7 H2O; 1.4; KH2PO4: 1.2; NaHCO3: 25; glucose: 10. The contractility is detected using Statham UC2 cells, amplified and digitalized by means of A/D converters (DAS-1802 HC, Keithley Instruments Munich), and recorded in parallel on linear recorders. To produce a contraction, phenylephrin is added to the bath cumulatively in increasing concentration. After several control cycles, the substance to be investigated is investigated in each further passage in increasing dosage in each case, and the height of the contraction is compared with the height of the contraction achieved in the last preliminary passage. From this, the concentration which is necessary in order to reduce the height of the control value by 50% (IC50) is calculated. The standard administration volume is 5 μl, and the proportion of DMSO in the bath solution corresponds to 0.1%.

Data set [3] concerns awake rabbits. The data set can be described thus: Erection-promoting action of guanylate cyclase stimulators in awake rabbits. The format is in vivo, chinchilla rabbits. The conditions noted are these: for Erection-promoting effect, +SNP i.v.: with sodium nitroprusside 0.2 mg/kg i.v. simultaneously; for Erection-promoting effect, +SNP po: sodium nitroprusside 0.2 mg/kg i.v. 30 min later. An excerpt:
For a complete and lasting erection to occur, the cavernous arteries and the entire cavernous body architecture, which is formed by a network of smooth muscle cells and collagen connective tissue, has to be at maximum dilation so that the corpus cavernosum can fill completely with blood (Anderson K.-E. and Wagner G., “Physiology of Penile Erection.”. Physiological Reviews 75, 191-236 (1995); Meinhardt W. Kropmann R F, Vermeig P, Lycclama a Nigelholt and Zwartendijk J. “The Influence of Medication on Erectile dysfunction.” Int. J. of Impotence Res. 9, 17-26 (1997). Relaxation of smooth muscles is mediated by NO which, in the case of sexual stimulation, is released by non-adrenergic, non-cholinergic nerve fibres in the endothelial cells of the blood vessels of the corpus cavernosum. NO activates guanylate cyclase, and the resulting increase in cGMP leads to dilation of the smooth muscles of the corpus cavernosum and consequently to an erection. To test the efficacy of the substances according to the invention, awake rabbits were used. The species rabbit was chosen since neurophysiology, haemodynamic and the control of contraction and relaxation of the smooth muscles of the corpus cavernosum of rabbit and man are quite similar (Meyer M F, Taher H., Krah H., Staubesand J., Becker A J, Kircher M, Mayer B., Jonas U., Forsmann W G., Stief Ch.G. “Intracavenous Application of SIN-1 in Rabbit and Man: Functional and Toxcological Results.” Annals Urol. 27, 179-182 (1993); Taub H C, Lerner S E, Melman A, Christ G J “Relationship between contraction and relaxation in human and rabbit corpus cavernosum.” Urology 42, 698-671, (1993).
Adult male chinchilla rabbits having a weight of 3-5 kg are, after delivery, adapted for several days in isolation. They have free access to water and can feed for two hours per day. The animals are kept in a 10/14 hour day/night rhythm (light switched on from 8.00 hours onwards). The room temperature is 22-24° C.
The animals are weighed directly before the start of the experiment. For intravenous administration, the substances according to the invention were dissolved in a mixture of Transcutol (GATTEFOSSE GmbH ) diluted with 20% Cremophor (BASF) and water in a ratio of 3/7. Sodium nitroprusside was dissolved in 0.9% NaCl. The substances were injected at the dosages stated in the table in a volume of 0.5 ml/kg into the auricular vein. For oral administration, the test substances were dissolved in a mixture of glycerol: water: polyethylene glycol 6:10:9.69 and administered at the dosages stated in the table in a volume of 1 ml/kg using the stomach tube.
The effect of guanylate cyclase stimulators is increased by NO donors.
The sodium nitroprusside was injected into the auricular vein at a dosage of 0.2 mg/kg simultaneously with the substance according to the invention. If the substance according to the invention was administered orally, the sodium nitroprusside was injected into the auricular vein of these animals 30 min after the oral administration. Corresponding controls were carried out using the solvent and using sodium nitroprusside on its own.
At rest, the penis of the rabbit is not visible in the pubic region and is covered completely by the sheath. The erection is assessed by measuring the length of the protruding penis with a calliper square. Measurements are carried out 5, 10, 15, 30, 45, 60, 120 and 180 min. after the administration of the substance. The effect is calculated as the product of the length of the penis which is not covered by fur in [mm] and the time for which the erection persists in [min].
The substances were administered in the dosages stated. The sodium nitroprusside was in each case administered i.v., at 0.2 mg/kg. If the substance according to the invention was administered i.v., the sodium nitroprusside was administered simultaneously, if the substance according to the invention was administered orally, it was administered 30 min later. […]

Data set [4] deals with anaesthetized rats. The experiment in a line: Blood pressure measurements in anaesthetized rats. The format is in vivo. The conditions noted are these: anaesthetized male Wistar rats. How it is done:
Blood Pressure Measurements in Anaesthetized Rats
Male Wistar rats having a bodyweight of 300-350 g are anaesthetized with Thiopental (100 mg/kg i.p.). After tracheotomy, a catheter is inserted into the femoral artery for blood pressure measurement. The substances to be tested are administered orally in Transcutol, Cremophor EL, H2O (10%/20%/70%) in a volume of 1 ml/kg.

The test system of data set [5] is human platelets stimulated with collagen. The experiment in a line: Inhibition of platelet aggregation in vitro (collagen-induced). The conditions noted are these: 10 min, washed human platelets, 10 min incubation at 37° C. The format is cell-based. How it is done:
To determine the cardiovascular action, the following investigations were carried out: In in vitro investigations on the isolated enzyme and on cells of vascular origin, the effect on guanylate cyclase-dependent cGMP formation was tested with and without NO donor. The anti-aggregatory properties were shown on human platelets stimulated with collagen. The vasorelaxant action was determined in rabbit aortal rings preconcentrated with phenylephrine. The hypotensive action was investigated in anaesthetized and awake rats.
To determine the platelet-aggregation, blood from healthy volunteers of both sexes was used. As an anticoagulant, 9 parts of blood were admixed to one part of 3.8% strength sodium citrate solution. The blood was centrifuged at 900 rpm for 20 min. The pH of the platelet-rich plasma obtained was adjusted to pH 6.5 using ACD solution (sodium citrate/citric acid/glucose). The platelets were subsequently centrifuged off and resuspended in buffer and once more centrifuged off. The platelet pellet was suspended in buffer and mixed with an additional 2 mmol/l of CaCl2.
To measure the aggregation, aliquots of the platelet suspension were incubated with the substance to tested at 37° C. for 10 min.

Consider `Nc1nc(-c2nn(Cc3ccccc3F)c3ncccc23)ncc1C1CCC1` [Example 2, 3-(4-Amino-5-cyclobutylpyrimidin-2-yl)-1-(2-fluorobenzyl)-1H-pyrazolo[3,4-b]pyridine], for which the melting point (commonly the temperature, or range, at which the solid turns liquid) came to 214 °C.

`Nc1nc(-c2nn(Cc3ccccc3F)c3ncccc23)ncc1C1CCCCC1` [Example 4, 3(4-Amino-5-cyclohexylpyrimidin-2-yl)-1-(2-fluorobenzyl)-1H-pyrazolo[3,4-b]pyridine]: the melting point stood at 213 °C.

For `Nc1nc(-c2nn(Cc3ccccc3F)c3ncccc23)ncc1C1CC1` [Example 1, 3-(4-Amino-5-cyclopropylpyrimidin-2-yl)-1-(2-fluorobenzyl)-1H-pyrazolo[3,4-b]pyridine], the cGMP in data set [1] (concentration 0.1 μM) was 2.2 pmol/well; in data set [1] (concentration 0.3 μM) it was 4.0 pmol/well; in data set [1] (concentration 1.0 μM) it was 6.9 pmol/well; in data set [1] (concentration 3.0 μM), 8.5 pmol/well; in data set [1] (concentration 10 μM) it was 14.6 pmol/well. Besides, the results for the IC50 in data set [2] and in data set [5] were 200 nM and 3 nM, respectively. Moreover, the “Erection-promoting effect, +SNP i.v.” value in data set [3] (0.3 mg/kg i.v.) was 140 [mm] × [min]; in data set [3] (1 mg/kg i.v.) it was 369 [mm] × [min]. In addition, the “Erection-promoting effect, +SNP po” value was 184 [mm] × [min] in data set [3] (1 mg/kg po), 233 [mm] × [min] in data set [3] (3 mg/kg po), 375 [mm] × [min] in data set [3] (10 mg/kg po) and 804 [mm] × [min] in data set [3] (30 mg/kg po). In data set [3] (30 mg/kg po, without sodium nitroprusside), the “Erection-promoting effect, −SNP po” value is 418 [mm] × [min]. The entries for the “Max. reduction in blood pressure” value in data set [4] (1 mg/kg p.o.) and in data set [4] (3 mg/kg p.o.) were 23 mm Hg and 37 mm Hg, respectively. The entries for the “Time (of max. reduction in blood pressure)” value in data set [4] (1 mg/kg p.o.) and in data set [4] (3 mg/kg p.o.) were 20 min and 40 min, respectively.

`Nc1nc(-c2nn(Cc3ccccc3F)c3ncccc23)ncc1C1CCCC1` [Example 3, 3-(4-Amino-5-cyclopentylpyrimidin-2-yl)-1-(2-fluorobenzyl)-1H-pyrazolo[3,4-b]pyridine]: the melting point was determined as 208 °C.
